According to patent publication US12569563B2, “Selective HDAC6 degraders and methods of use thereof” (DANA-FARBER CANCER INSTITUTE, INC., priority 2019, dated 2026):
pIC50: −log10 of the molar value.

Tests used:
Assay type in all cases: biochemical
HDAC5 = target: T1, HDAC5 (Homo sapiens, UniProt Q9UQL6); test: HDAC assay from Reaction Biology, Class2A substrate; conditions: 10-dose response curve; read-out: Compound IC50 HDAC5
T1 construct: purchased Reaction Biology
Experimental: (§1) Compounds 1 and 3 were tested in a HDAC assay from Reaction Biology® against 10 different HDACs.
(§2) Base Reaction buffer: 50 mM Tris-HCl, pH8.0, 137 mM NaCl, 2.7 mM KCl, and 1 mM MgCl2,
(§3) Add fresh: 1 mg/ml BSA, 1% DMSO
(§4) • (HDAC8 only substrate: 50 μM, Arg-His-Lys(Ac)-Lys(Ac))-AMC Class2A Substrate (HDAC4, HDAC5, HDAC7, and HDAC9): Boc-Lys(trifluoroacetyl)-AMC For SIRTs 1-3, general Class1 HDAC substrate and 500 μM NAD+ For SIRT5, Ac-Lys-succ and 500 μM NAD+ Reaction Procedure Deacetylation Step • 1. Delivered 2× enzyme in wells of reaction plate except in the control wells and added buffer to control wells. • 2. Delivered compounds in 100% DMSO into the enzyme mixture by Acoustic technology (Echo550; nanoliter range). Spin down and pre-incubation. • 3. Delivered 2× Substrate Mixture (Fluorogenic HDAC Substrate and co-factor if applicable) in all reaction wells to initiate the reaction. Spin and shake. • 4. Incubated for 30 min for Class 2A, 1 hr for HDAC1, 2, 3, and 6, and 2 hr for the rest of HDACs and SIRTs at 30° C. with seal. Development Step • 5. Added Developer with Trichostatin A (or Nicotinamide for SIRTs) to stop the reaction and to generate fluorescent color. • 6. The fluorescence that was generated was detected with excitation (Ex) at […] and emission (Em) at 460 nM by the EnVision Multilabel Plate Reader (PerkinElmer®, Santa Clara, CA, USA). • 7. […]

HDAC1 = target: T2, HDAC1 (Homo sapiens, UniProt Q13547); test: HDAC assay from Reaction Biology, fluorogenic substrate; conditions: 10-dose response curve; read-out: Compound IC50 HDAC1
T2 construct: purchased Reaction Biology
T2 sequence (Q13547 whole entry): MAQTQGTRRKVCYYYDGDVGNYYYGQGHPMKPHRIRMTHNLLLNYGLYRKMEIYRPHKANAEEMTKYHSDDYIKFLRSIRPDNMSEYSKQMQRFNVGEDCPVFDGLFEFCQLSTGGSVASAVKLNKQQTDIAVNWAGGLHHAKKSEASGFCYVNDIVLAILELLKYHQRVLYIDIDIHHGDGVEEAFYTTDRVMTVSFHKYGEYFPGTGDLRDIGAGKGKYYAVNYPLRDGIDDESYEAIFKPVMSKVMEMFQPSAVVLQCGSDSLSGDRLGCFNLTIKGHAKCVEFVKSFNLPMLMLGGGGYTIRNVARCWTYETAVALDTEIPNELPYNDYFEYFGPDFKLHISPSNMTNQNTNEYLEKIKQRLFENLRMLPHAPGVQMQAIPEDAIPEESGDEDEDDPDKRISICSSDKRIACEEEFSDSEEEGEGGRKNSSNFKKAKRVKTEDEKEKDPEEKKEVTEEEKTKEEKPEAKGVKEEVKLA
Experimental: as §1, §2, §3
(§5) Fluorogenic HDAC General Substrate (HDAC1, HDAC2, HDAC3, HDAC6, HDAC10, and HDAC11): 50 μM, Arg-His-Lys-Lys(Ac)-AMC
(§6) • (HDAC8 only substrate: 50 μM, Arg-His-Lys(Ac)-Lys(Ac))-AMC Class2A Substrate (HDAC4, HDAC5, HDAC7, and HDAC9): Boc-Lys(trifluoroacetyl)-AMC For SIRTs 1-3, general Class1 HDAC substrate and 500 μM NAD+ For SIRT5, Ac-Lys-succ and 500 μM NAD+ Reaction Procedure Deacetylation Step • 1. Delivered 2× enzyme in wells of reaction plate except in the control wells and added buffer to control wells. • 2. Delivered compounds in 100% DMSO into the enzyme mixture by Acoustic technology (Echo550; nanoliter range). Spin down and pre-incubation. • 3. Delivered 2× Substrate Mixture (Fluorogenic HDAC Substrate and co-factor if applicable) in all reaction wells to initiate the reaction. Spin and shake. • 4. Incubated for 30 min for Class 2A, 1 hr for HDAC1, 2, 3, and 6, and 2 hr for the rest of HDACs and SIRTs at 30° C. with seal. Development Step • 5. Added Developer with Trichostatin A (or Nicotinamide for SIRTs) to stop the reaction and to generate fluorescent color. • 6. The fluorescence that was generated was detected with excitation (Ex) at […] and emission (Em) at 460 nM by the EnVision Multilabel Plate Reader (PerkinElmer®, Santa Clara, CA, USA). • 7. IC50 values, presented in Table 1, were derived from a 10-dose response curve.

HDAC2 = target: T3, HDAC2 (Homo sapiens, UniProt Q92769); test: as above; conditions: 10-dose response curve; read-out: Compound IC50 HDAC2
T3 construct: purchased Reaction Biology
T3 sequence (Q92769 whole entry): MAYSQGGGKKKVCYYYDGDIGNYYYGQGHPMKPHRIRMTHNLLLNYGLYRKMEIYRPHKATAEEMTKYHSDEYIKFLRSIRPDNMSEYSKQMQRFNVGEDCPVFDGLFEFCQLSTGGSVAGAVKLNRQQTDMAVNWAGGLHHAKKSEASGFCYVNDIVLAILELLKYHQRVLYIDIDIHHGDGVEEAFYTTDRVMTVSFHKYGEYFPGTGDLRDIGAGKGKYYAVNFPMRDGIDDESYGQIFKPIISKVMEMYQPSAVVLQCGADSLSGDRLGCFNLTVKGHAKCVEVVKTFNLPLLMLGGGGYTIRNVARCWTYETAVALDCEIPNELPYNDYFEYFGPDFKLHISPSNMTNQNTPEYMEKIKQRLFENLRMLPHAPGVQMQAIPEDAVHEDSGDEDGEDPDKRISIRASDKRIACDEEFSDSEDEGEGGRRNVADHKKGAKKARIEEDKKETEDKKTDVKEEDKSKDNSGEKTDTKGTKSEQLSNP
Experimental: as §1, §2, §3, §5, §6

HDAC3 = target: T4, HDAC3 (Homo sapiens, UniProt O15379); test: as above; conditions: 10-dose response curve; read-out: Compound IC50 HDAC3
T4 construct: purchased Reaction Biology
T4 sequence (O15379 whole entry): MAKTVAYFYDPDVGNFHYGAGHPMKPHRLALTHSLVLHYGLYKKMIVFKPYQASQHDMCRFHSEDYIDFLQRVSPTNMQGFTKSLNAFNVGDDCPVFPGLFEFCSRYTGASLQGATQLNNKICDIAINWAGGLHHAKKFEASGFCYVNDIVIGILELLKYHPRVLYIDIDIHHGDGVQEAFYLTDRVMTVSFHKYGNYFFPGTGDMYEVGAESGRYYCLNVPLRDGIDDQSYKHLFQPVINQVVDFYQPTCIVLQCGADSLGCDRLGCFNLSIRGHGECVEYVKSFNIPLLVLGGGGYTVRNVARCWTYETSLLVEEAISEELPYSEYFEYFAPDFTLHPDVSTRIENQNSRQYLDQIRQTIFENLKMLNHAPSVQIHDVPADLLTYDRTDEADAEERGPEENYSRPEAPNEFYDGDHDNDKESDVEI
T4 sequence (Q9Y618 395-489 partner limits assumed): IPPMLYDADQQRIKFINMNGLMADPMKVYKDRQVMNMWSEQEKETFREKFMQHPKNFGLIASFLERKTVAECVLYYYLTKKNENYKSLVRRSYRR
Experimental: as §1, §2, §3, §5, §6

HDAC8 = target: T5, HDAC8 (Homo sapiens, UniProt Q9BY41); test: HDAC assay from Reaction Biology, HDAC8 substrate; conditions: 10-dose response curve; read-out: Compound IC50 HDAC8
T5 construct: purchased Reaction Biology
T5 sequence (Q9BY41 1-377): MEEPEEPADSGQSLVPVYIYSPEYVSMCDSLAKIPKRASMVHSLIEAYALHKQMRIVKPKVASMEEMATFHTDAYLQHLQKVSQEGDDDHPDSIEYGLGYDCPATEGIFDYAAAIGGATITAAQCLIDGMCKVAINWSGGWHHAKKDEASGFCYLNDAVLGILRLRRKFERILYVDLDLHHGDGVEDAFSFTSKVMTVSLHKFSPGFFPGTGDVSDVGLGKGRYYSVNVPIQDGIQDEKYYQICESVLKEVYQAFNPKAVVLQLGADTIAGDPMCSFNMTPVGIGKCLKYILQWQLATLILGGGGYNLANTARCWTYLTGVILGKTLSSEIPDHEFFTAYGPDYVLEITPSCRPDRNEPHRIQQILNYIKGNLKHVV
Experimental: as §1, §2, §3, §4

HDAC6 = target: T6, HDAC6 (Homo sapiens, UniProt Q9UBN7); test: HDAC assay from Reaction Biology, fluorogenic substrate; set-up: purchased Reaction Biology; conditions: 10-dose response curve; read-out: Compound IC50 HDAC6
T6 sequence (Q9UBN7 1-1215): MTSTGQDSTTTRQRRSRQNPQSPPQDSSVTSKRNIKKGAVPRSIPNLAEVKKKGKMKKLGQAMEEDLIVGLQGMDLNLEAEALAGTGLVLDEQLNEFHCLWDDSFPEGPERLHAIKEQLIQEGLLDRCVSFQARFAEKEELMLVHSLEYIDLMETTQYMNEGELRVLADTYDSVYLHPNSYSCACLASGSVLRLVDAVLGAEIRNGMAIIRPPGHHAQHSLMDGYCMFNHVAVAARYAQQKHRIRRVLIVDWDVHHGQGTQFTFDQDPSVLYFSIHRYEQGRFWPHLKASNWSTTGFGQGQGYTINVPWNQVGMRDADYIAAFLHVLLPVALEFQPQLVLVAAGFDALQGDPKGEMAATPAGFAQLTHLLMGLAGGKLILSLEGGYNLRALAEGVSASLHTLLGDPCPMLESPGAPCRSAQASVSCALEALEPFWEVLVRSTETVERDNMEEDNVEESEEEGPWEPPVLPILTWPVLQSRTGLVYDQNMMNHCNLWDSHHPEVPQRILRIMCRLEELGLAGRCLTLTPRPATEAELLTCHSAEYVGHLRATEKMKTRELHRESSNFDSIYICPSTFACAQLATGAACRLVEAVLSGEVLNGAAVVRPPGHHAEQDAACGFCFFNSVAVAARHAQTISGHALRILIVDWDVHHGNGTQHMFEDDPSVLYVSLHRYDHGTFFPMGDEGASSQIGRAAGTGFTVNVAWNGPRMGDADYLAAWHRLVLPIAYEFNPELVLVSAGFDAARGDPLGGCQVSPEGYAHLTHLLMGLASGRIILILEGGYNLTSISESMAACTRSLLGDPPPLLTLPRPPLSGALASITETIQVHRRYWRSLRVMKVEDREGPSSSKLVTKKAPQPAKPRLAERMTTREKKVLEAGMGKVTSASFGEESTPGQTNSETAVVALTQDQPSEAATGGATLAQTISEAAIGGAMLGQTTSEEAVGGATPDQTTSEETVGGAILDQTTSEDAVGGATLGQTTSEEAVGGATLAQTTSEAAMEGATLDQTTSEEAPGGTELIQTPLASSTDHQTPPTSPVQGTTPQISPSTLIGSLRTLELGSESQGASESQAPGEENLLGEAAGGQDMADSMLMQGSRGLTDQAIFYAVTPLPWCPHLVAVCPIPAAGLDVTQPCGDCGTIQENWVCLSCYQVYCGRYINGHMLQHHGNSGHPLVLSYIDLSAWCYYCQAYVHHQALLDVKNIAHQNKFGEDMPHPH
Experimental: as §1, §2, §3, §5
as §4, with “Added Developer with Trichostatin A (or Nicotinamide for SIRTs) to stop the reaction and to generate fluorescent color. • 6.” left out

T1 sequence (Q9UQL6 whole entry): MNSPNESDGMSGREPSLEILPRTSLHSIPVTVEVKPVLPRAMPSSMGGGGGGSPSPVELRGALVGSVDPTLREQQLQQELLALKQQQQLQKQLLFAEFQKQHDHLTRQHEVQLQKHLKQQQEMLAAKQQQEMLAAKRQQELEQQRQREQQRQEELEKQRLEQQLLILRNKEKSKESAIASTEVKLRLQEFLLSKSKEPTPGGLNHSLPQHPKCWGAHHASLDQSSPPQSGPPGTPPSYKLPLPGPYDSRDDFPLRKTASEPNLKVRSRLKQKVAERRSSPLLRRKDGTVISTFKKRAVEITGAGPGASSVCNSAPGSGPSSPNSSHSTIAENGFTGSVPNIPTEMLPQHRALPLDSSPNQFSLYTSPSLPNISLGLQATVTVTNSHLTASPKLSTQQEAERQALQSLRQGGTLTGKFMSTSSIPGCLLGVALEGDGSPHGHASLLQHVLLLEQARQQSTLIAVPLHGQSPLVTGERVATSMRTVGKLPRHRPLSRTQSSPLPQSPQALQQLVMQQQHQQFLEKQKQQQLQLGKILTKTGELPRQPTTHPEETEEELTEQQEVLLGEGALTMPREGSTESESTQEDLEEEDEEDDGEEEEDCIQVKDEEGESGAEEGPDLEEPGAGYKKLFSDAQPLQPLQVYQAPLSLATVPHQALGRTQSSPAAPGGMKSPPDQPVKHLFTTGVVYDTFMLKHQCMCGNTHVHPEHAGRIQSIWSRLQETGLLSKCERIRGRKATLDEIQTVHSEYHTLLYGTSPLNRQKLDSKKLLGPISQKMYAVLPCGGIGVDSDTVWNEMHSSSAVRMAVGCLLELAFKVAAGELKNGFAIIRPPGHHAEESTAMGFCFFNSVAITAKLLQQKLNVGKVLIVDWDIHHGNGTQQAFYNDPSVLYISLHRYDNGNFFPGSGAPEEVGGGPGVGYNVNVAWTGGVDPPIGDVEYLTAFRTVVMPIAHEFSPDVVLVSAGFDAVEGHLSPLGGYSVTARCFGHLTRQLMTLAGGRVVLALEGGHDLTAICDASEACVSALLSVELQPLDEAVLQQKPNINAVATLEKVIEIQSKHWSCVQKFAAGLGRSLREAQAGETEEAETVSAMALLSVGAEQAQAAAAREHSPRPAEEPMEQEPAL

Compound CN(C(=O)CCCNc1cccc2c1C(=O)N(C1CCC(=O)NC1=O)C2=O)c1ccc(NC(=O)CCCCCCC(=O)NO)cc1 (stereo not drawn) [Compound 1, N^1-(4-(4-((2-(2,6-dioxopiperidin-3-yl)-1,3-dioxoisoindolin-4-yl)amino)-N-methylbutanamido)phenyl)-N^8-hydroxyoctanediamide] has a pIC50 (HDAC5) of 5.24, a pIC50 (HDAC1) of 5.98 and a pIC50 (HDAC2) of 5.61. It also gave a pIC50 (HDAC3) of 5.84, a pIC50 (HDAC8) of 6.21 and a pIC50 (HDAC6) of 7.31.

CN(C(=O)CCCCCCCNc1cccc2c1C(=O)N(C1CCC(=O)NC1=O)C2=O)c1ccc(NC(=O)CCCCCCC(=O)NO)cc1 (stereo not drawn) [Compound 3, N^1-(4-(8-((2-(2,6-dioxopiperidin-3-yl)-1,3-dioxoisoindolin-4-yl)amino)-N-methyloctanamido)phenyl)-N^8-hydroxyoctanediamide] showed a pIC50 (HDAC5) of 5.11, a pIC50 (HDAC1) of 5.36 and a pIC50 (HDAC2) of 4.84. For the same compound, the pIC50 (HDAC3) was 5.46, the pIC50 (HDAC8) was 6.40 and the pIC50 (HDAC6) was 7.40.
